Test results from patent US10441689B2, “Methods and devices for three-dimensional printing or additive manufacturing of bioactive medical devices” (Louisiana Tech Research Corporation, priority 2014, dated 2019).

Tests used:
E. Coli bacteria [1] = experiment: bacterial plates, antibiotic susceptibility gel diffusion testing; assay type: cell-based; settings: 1 mg amounts; for kill zone on bacterial plate, cooked powder: antibiotic powder heated to 220 Celsius for 5 minutes
Method: (§1) In another example embodiment (example 3), PLA pellets were run through a filament extruder with 2% gentamicine powder at 175 Celsius. The resulting filament was tested on bacterial plates using antibiotic susceptibility gel diffusion testing using E. Coli bacteria. A kill zone was observed around the filament. […] The filament is run through a 3D printer head nozzle at 220 Celsius and 300 um fibers are created. […] It should be noted that bacterial plates and cultures were carried out as close to Kirby-Bauer ISO standards as possible being that of 100 mm Mueller Hinton plates or Mueller Hinton broths. E. Coli colonies (Sigma Aldrich Vitroid Origin) used to seed plates were taken from 0.5 McFarland standard solutions in 50 uL quantities. Control plates and broths were used. Control PLA printed discs, beads, stents and catheters were used to compare against antibiotic filaments. Molded bone cement beads, discs and filaments made of Ortho-Right LV bone cements were used as comparison for no antibiotic and antibiotic controls.

E. Coli bacteria [2] = experiment: bacterial broth culture; assay type: cell-based; settings: 1 mg amounts; for bacterial growth in broth culture, cooked powder: antibiotic powder heated to 220 Celsius for 5 minutes
Method: as §1

Compound | kill zone on bacterial plate, cooked powder (E. Coli bacteria [1]) | kill zone on bacterial plate, uncooked control powder (E. Coli bacteria [1]) | bacterial growth in broth culture, cooked powder (E. Coli bacteria [2]) | bacterial growth in broth culture, uncooked control powder (E. Coli bacteria [2])
NC[C@H]1O[C@H](O[C@H]2[C@H](O)[C@@H](O[C@H]3O[C@H](CO)[C@@H](O)[C@H](N)[C@H]3O)[C@H](N)C[C@@H]2N)[C@H](N)C[C@@H]1O [Tobramycin] | kill zones | kill zones | no bacterial growth | no bacterial growth
Gentamicin | kill zones | kill zones | no bacterial growth | no bacterial growth
